Measurements: ChEMBL document CHEMBL4257221, “Peptides comprising non-natural amino acids and methods of making and using the same” (2016)
Numbered stars: 1 amine (or outer) side, 2 acyl side, 3 side chain; on linkers, the order of the positions; unused ones are H or OH. Square brackets hold non-standard residues; d marks the D form. Peptide text beside a SMILES is read from it. ξ: configuration not given here. X1 = O=C([C@H]1CCC[C@@H]1N[*:1])[*:2]; X2 = O=C([C@H]1CNC[C@@H]1N[*:1])[*:2]; ξβ3hY = NC(CC(=O)O)Cc1ccc(O)cc1; β3hN = NC(=O)C[C@H](N)CC(=O)O; ξβ3hR = N=C(N)NCCCC(N)CC(=O)O; β3hV = CC(C)[C@H](N)CC(=O)O; ξβ3hQ = NC(=O)CCC(N)CC(=O)O; ξβ3hD = NC(CC(=O)O)CC(=O)O; ξβ3hL = CC(C)CC(N)CC(=O)O; ξβ3hK = NCCCCC(N)CC(=O)O; ξβ3hT = CC(O)C(N)CC(=O)O; ξβ3hV = CC(C)C(N)CC(=O)O; βAla = NCCC(=O)O

Assays:
[1] = molecular target: T1, Vasoactive intestinal polypeptide receptor 2 (Homo sapiens, UniProt P41587); assay: Agonist activity at human VIPR2 expressed in CHOK1 cells assessed as intracellular cAMP accumulation after 60 mins by PathHunter assay; type: functional, cell-based
T1 sequence (P41587 whole entry): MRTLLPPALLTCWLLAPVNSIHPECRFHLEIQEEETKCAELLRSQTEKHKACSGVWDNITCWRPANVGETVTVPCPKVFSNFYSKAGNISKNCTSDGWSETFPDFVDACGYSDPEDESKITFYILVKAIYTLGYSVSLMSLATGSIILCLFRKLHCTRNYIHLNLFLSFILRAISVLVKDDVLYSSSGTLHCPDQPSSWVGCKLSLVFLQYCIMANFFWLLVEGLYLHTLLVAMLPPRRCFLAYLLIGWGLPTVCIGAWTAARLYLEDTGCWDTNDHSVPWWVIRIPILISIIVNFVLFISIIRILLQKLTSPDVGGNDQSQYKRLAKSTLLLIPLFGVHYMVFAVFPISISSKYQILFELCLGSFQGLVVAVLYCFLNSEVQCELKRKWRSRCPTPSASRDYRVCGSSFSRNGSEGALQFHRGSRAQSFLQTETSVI

[2] = molecular target: T2, Vasoactive intestinal polypeptide receptor 1 (Homo sapiens, UniProt P32241); assay: Agonist activity at human VIPR1 expressed in CHOK1 cells assessed as intracellular cAMP accumulation after 60 mins by PathHunter assay; type: functional, cell-based
T2 sequence (P32241 whole entry): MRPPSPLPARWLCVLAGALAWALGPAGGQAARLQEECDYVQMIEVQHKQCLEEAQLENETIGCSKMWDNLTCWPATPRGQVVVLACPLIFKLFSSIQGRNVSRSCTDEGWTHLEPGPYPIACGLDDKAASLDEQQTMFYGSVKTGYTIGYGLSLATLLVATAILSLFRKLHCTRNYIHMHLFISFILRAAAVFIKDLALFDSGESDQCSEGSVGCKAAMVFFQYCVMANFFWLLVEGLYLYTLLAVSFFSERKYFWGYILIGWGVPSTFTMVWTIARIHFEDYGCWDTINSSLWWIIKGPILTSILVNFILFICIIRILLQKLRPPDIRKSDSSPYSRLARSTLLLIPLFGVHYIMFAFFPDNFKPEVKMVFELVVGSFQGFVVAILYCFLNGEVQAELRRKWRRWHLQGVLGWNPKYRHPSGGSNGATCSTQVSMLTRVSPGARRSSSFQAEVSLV

| SMILES | EC50 [1] [nM] | EC50 [2] [nM] |
| --- | --- | --- |
| CC(=O)N[C@@H](Cc1cnc[nH]1)C(=O)N[C@H]1CCC[C@@H]1C(=O)N[C@@H](CC(=O)O)C(=O)N[C@@H](C)C(=O)N[C@H]1CCC[C@@H]1C(=O)N[C@@H](Cc1ccccc1)C(=O)N[C@H](C(=O)N[C@@H](CCC(=O)O)C(=O)N[C@H]1CCC[C@@H]1C(=O)NC(CC(=O)N[C@H](C(=O)N[C@@H](CCCCN)C(=O)N[C@@H](CC(C)C)C(=O)N[C@@H](CCCNC(=N)N)C(=O)NC(CCCCN)CC(=O)N[C@@H](CCC(N)=O)C(=O)N[C@@H](CC(C)C)C(=O)N[C@@H](C)C(=O)N[C@@H](C)C(=O)N[C@H]1CNC[C@@H]1C(=O)N[C@@H](CCCCN)C(=O)N[C@@H](Cc1ccc(O)cc1)C(=O)N[C@H]1CCC[C@@H]1C(=O)N[C@@H](CC(N)=O)C(=O)N[C@@H](CC(=O)O)C(=O)N[C@@H](CC(C)C)C(=O)NC(CCCCN)CC(=O)N[C@@H](CCCCN)C(=O)NCC(=O)NCCC(=O)N[C@H](C(=O)O)[C@@H](C)O)[C@@H](C)O)Cc1ccc(O)cc1)[C@@H](C)O (stereo partly drawn) (Ac-H[X1]DA[X1]FTE[X1][ξβ3hY]TKLR[ξβ3hK]QLAA[X2]KY[X1]NDL[ξβ3hK]KG[βAla]T-OH) | > 1000 | 461 |
| CC(=O)N[C@@H](Cc1cnc[nH]1)C(=O)N[C@H]1CCC[C@@H]1C(=O)N[C@@H](CC(=O)O)C(=O)N[C@@H](C)C(=O)N[C@H](CC(=O)N[C@@H](Cc1ccccc1)C(=O)N[C@H](C(=O)N[C@@H](CCC(=O)O)C(=O)N[C@@H](CC(N)=O)CC(=O)N[C@@H](Cc1ccc(O)cc1)C(=O)N[C@H](C(=O)N[C@@H](CCCCN)C(=O)N[C@@H](CC(C)C)C(=O)N[C@@H](CCCNC(=N)N)C(=O)N[C@@H](CCCCN)C(=O)N[C@@H](CCC(N)=O)C(=O)N[C@@H](CC(C)C)C(=O)N[C@@H](C)C(=O)N[C@@H](C)C(=O)N[C@H]1CNC[C@@H]1C(=O)N[C@@H](CCCCN)C(=O)N[C@@H](Cc1ccc(O)cc1)C(=O)N[C@H]1CCC[C@@H]1C(=O)N[C@@H](CC(N)=O)C(=O)N[C@@H](CC(=O)O)C(=O)N[C@@H](CC(C)C)C(=O)NC(CCCCN)CC(=O)N[C@@H](CCCCN)C(=O)NCC(=O)NCCC(=O)N[C@H](C(=O)O)[C@@H](C)O)[C@@H](C)O)[C@@H](C)O)C(C)C (stereo partly drawn) (Ac-H[X1]DA[β3hV]FTE[β3hN]YTKLRKQLAA[X2]KY[X1]NDL[ξβ3hK]KG[βAla]T-OH) | 0.859 | 1420 |
| CC(=O)N[C@@H](Cc1cnc[nH]1)C(=O)N[C@H]1CCC[C@@H]1C(=O)N[C@@H](CC(=O)O)C(=O)N[C@@H](C)C(=O)NC(CC(=O)N[C@@H](Cc1ccccc1)C(=O)N[C@H](C(=O)N[C@@H](CCC(=O)O)C(=O)N[C@@H](CC(N)=O)C(=O)N[C@@H](Cc1ccc(O)cc1)C(=O)N[C@H](C(=O)N[C@@H](CCCCN)C(=O)N[C@@H](CC(C)C)C(=O)NC(CCCNC(=N)N)CC(=O)N[C@@H](CCCCN)C(=O)N[C@@H](CCC(N)=O)C(=O)N[C@@H](CC(C)C)C(=O)N[C@@H](C)C(=O)N[C@@H](C)C(=O)N[C@H]1CNC[C@@H]1C(=O)N[C@@H](CCCCN)C(=O)N[C@@H](Cc1ccc(O)cc1)C(=O)N[C@H]1CCC[C@@H]1C(=O)N[C@@H](CC(N)=O)C(=O)N[C@@H](CC(=O)O)C(=O)N[C@@H](CC(C)C)C(=O)NC(CCCCN)CC(=O)N[C@@H](CCCCN)C(=O)NCC(=O)NCCC(=O)N[C@H](C(=O)O)[C@@H](C)O)[C@@H](C)O)[C@@H](C)O)C(C)C (stereo partly drawn) (Ac-H[X1]DA[ξβ3hV]FTENYTKL[ξβ3hR]KQLAA[X2]KY[X1]NDL[ξβ3hK]KG[βAla]T-OH) | 1.37 | > 1000 |
| CC(=O)N[C@@H](Cc1cnc[nH]1)C(=O)N[C@H]1CCC[C@@H]1C(=O)N[C@@H](CC(=O)O)C(=O)N[C@@H](C)C(=O)NC(CC(=O)N[C@@H](Cc1ccccc1)C(=O)N[C@H](C(=O)N[C@@H](CCC(=O)O)C(=O)N[C@@H](CC(N)=O)C(=O)N[C@@H](Cc1ccc(O)cc1)C(=O)N[C@H](C(=O)N[C@@H](CCCCN)C(=O)NC(CC(=O)N[C@@H](CCCNC(=N)N)C(=O)N[C@@H](CCCCN)C(=O)N[C@@H](CCC(N)=O)C(=O)N[C@@H](CC(C)C)C(=O)N[C@@H](C)C(=O)N[C@@H](C)C(=O)N[C@H]1CNC[C@@H]1C(=O)N[C@@H](CCCCN)C(=O)N[C@@H](Cc1ccc(O)cc1)C(=O)N[C@H]1CCC[C@@H]1C(=O)N[C@@H](CC(N)=O)C(=O)N[C@@H](CC(=O)O)C(=O)N[C@@H](CC(C)C)C(=O)NC(CCCCN)CC(=O)N[C@@H](CCCCN)C(=O)NCC(=O)NCCC(=O)N[C@H](C(=O)O)[C@@H](C)O)CC(C)C)[C@@H](C)O)[C@@H](C)O)C(C)C (stereo partly drawn) (Ac-H[X1]DA[ξβ3hV]FTENYTK[ξβ3hL]RKQLAA[X2]KY[X1]NDL[ξβ3hK]KG[βAla]T-OH) | 1.33 | 1420 |
| CC(=O)N[C@@H](Cc1cnc[nH]1)C(=O)N[C@H]1CCC[C@@H]1C(=O)N[C@@H](CC(=O)O)C(=O)N[C@@H](C)C(=O)NC(CC(=O)N[C@@H](Cc1ccccc1)C(=O)N[C@H](C(=O)N[C@@H](CCC(=O)O)C(=O)N[C@@H](CC(N)=O)CC(=O)N[C@@H](Cc1ccc(O)cc1)C(=O)N[C@H](C(=O)N[C@@H](CCCCN)C(=O)N[C@@H](CC(C)C)C(=O)N[C@@H](CCCNC(=N)N)C(=O)N[C@@H](CCCCN)C(=O)N[C@@H](CCC(N)=O)C(=O)NC(CC(=O)N[C@@H](C)C(=O)N[C@@H](C)C(=O)N[C@H]1CNC[C@@H]1C(=O)N[C@@H](CCCCN)C(=O)N[C@@H](Cc1ccc(O)cc1)C(=O)N[C@H]1CCC[C@@H]1C(=O)N[C@@H](CC(N)=O)C(=O)N[C@@H](CC(=O)O)C(=O)N[C@@H](CC(C)C)C(=O)NC(CCCCN)CC(=O)N[C@@H](CCCCN)C(=O)NCC(=O)NCCC(=O)N[C@H](C(=O)O)[C@@H](C)O)CC(C)C)[C@@H](C)O)[C@@H](C)O)C(C)C (stereo partly drawn) (Ac-H[X1]DA[ξβ3hV]FTE[β3hN]YTKLRKQ[ξβ3hL]AA[X2]KY[X1]NDL[ξβ3hK]KG[βAla]T-OH) | 1.26 | > 1000 |
| CC(=O)N[C@@H](Cc1cnc[nH]1)C(=O)N[C@H]1CCC[C@@H]1C(=O)N[C@@H](CC(=O)O)C(=O)N[C@@H](C)C(=O)NC(CC(=O)N[C@@H](Cc1ccccc1)C(=O)N[C@H](C(=O)N[C@@H](CCC(=O)O)C(=O)N[C@@H](CC(N)=O)CC(=O)N[C@@H](Cc1ccc(O)cc1)C(=O)N[C@H](C(=O)N[C@@H](CCCCN)C(=O)N[C@@H](CC(C)C)C(=O)N[C@@H](CCCNC(=N)N)C(=O)N[C@@H](CCCCN)C(=O)NC(CCC(N)=O)CC(=O)N[C@@H](CC(C)C)C(=O)N[C@@H](C)C(=O)N[C@@H](C)C(=O)N[C@H]1CNC[C@@H]1C(=O)N[C@@H](CCCCN)C(=O)N[C@@H](Cc1ccc(O)cc1)C(=O)N[C@H]1CCC[C@@H]1C(=O)N[C@@H](CC(N)=O)C(=O)N[C@@H](CC(=O)O)C(=O)N[C@@H](CC(C)C)C(=O)NC(CCCCN)CC(=O)N[C@@H](CCCCN)C(=O)NCC(=O)NCCC(=O)N[C@H](C(=O)O)[C@@H](C)O)[C@@H](C)O)[C@@H](C)O)C(C)C (stereo partly drawn) (Ac-H[X1]DA[ξβ3hV]FTE[β3hN]YTKLRK[ξβ3hQ]LAA[X2]KY[X1]NDL[ξβ3hK]KG[βAla]T-OH) | 3.52 | 1530 |
| CC(=O)N[C@@H](Cc1cnc[nH]1)C(=O)N[C@H]1CCC[C@@H]1C(=O)N[C@@H](CC(=O)O)C(=O)N[C@@H](C)C(=O)NC(CC(=O)N[C@@H](Cc1ccccc1)C(=O)N[C@H](C(=O)N[C@@H](CCC(=O)O)C(=O)N[C@@H](CC(N)=O)CC(=O)N[C@@H](Cc1ccc(O)cc1)C(=O)N[C@H](C(=O)N[C@@H](CCCCN)C(=O)N[C@@H](CC(C)C)C(=O)N[C@@H](CCCNC(=N)N)C(=O)NC(CCCCN)CC(=O)N[C@@H](CCC(N)=O)C(=O)N[C@@H](CC(C)C)C(=O)N[C@@H](C)C(=O)N[C@@H](C)C(=O)N[C@H]1CNC[C@@H]1C(=O)N[C@@H](CCCCN)C(=O)N[C@@H](Cc1ccc(O)cc1)C(=O)N[C@H]1CCC[C@@H]1C(=O)N[C@@H](CC(N)=O)C(=O)N[C@@H](CC(=O)O)C(=O)N[C@@H](CC(C)C)C(=O)NC(CCCCN)CC(=O)N[C@@H](CCCCN)C(=O)NCC(=O)NCCC(=O)N[C@H](C(=O)O)[C@@H](C)O)[C@@H](C)O)[C@@H](C)O)C(C)C (stereo partly drawn) (Ac-H[X1]DA[ξβ3hV]FTE[β3hN]YTKLR[ξβ3hK]QLAA[X2]KY[X1]NDL[ξβ3hK]KG[βAla]T-OH) | 1.27 | 293 |
| CC[C@H](C)[C@H](NC(=O)[C@H](C)NC(=O)[C@H](CC(N)=O)NC(=O)CC(CC(C)C)NC(=O)[C@H](Cc1ccc(O)cc1)NC(=O)[C@H](CCCCN)NC(=O)[C@H](CCCCN)NC(=O)CC(NC(=O)[C@H](C)NC(=O)[C@H](CC(C)C)NC(=O)[C@H](CCC(N)=O)NC(=O)CC(CCCCN)NC(=O)[C@H](CCCNC(=N)N)NC(=O)[C@H](CC(C)C)NC(=O)[C@H](CCCNC(=N)N)NC(=O)CC(NC(=O)[C@H](Cc1ccc(O)cc1)NC(=O)[C@H](CC(N)=O)NC(=O)[C@H](CC(=O)O)NC(=O)CC(NC(=O)[C@H](Cc1ccccc1)NC(=O)[C@@H](NC(=O)[C@H](C)NC(=O)CC(CC(=O)O)NC(=O)[C@H](CO)NC(=O)[C@@H](N)Cc1cnc[nH]1)C(C)C)C(C)O)C(C)O)C(C)C)C(=O)NC(CC(=O)N[C@@H](CC(N)=O)C(=O)O)CC(C)C (stereo partly drawn) (H-HS[ξβ3hD]AVF[ξβ3hT]DNY[ξβ3hT]RLR[ξβ3hK]QLA[ξβ3hV]KKY[ξβ3hL]NAI[ξβ3hL]N-OH) | > 1000 | > 1000 |
